{"source": "patent US8759031B2", "about": "“Type I polyketide synthase extender units” (priority 2007, dated 2014)", "molecules": {"B1": {"name": "holo-ZmaD: acyl carrier protein ZmaD (SEQ ID NO:2) phosphopantetheinylated in vitro by Sfp (protein, listed as Bacillus cereus)", "chain": "MDNHEKIRQYIKKNLIIFNAEETIVANDENIFEKGYVNSLFAMQMLNFIETEFDIVVDNDELDIINFSTINNMVDLINKKKNGNFTV", "modifications": "phosphopantetheinylated"}}, "key": {"[1]": {"target": "T1, ZmaJ (Bacillus cereus, UniProt Q7BQ71)", "T1 sequence (Q7BQ71 whole entry)": "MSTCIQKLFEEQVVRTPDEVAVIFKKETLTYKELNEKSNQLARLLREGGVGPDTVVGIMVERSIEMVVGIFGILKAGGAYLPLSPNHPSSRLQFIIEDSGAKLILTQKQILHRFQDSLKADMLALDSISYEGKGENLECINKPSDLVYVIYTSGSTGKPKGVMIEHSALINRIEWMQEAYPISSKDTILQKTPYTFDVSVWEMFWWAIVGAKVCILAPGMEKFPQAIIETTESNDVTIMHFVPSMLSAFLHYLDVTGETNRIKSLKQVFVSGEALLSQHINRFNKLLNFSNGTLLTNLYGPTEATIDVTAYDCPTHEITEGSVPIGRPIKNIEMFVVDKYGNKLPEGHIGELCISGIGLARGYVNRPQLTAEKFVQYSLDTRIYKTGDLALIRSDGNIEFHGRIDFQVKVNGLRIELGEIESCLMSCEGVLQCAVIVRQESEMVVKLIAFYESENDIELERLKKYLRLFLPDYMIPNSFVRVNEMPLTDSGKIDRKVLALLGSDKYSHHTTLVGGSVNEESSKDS", "procedure": "ATP-PPi exchange assays were performed as previously described (Thomas et al., 2002, Chem. Biol. 9: 171-184). Reactions for amino acid specificity contained 70 nM ZmaJ and 1 mM of the following amino acids: L-Ser, L-2,3-diaminopropionate, L-Thr, Gly, and L-Cys. To determine the kinetic parameters of ZmaJ activation of L-Ser, 100 μL reactions containing 70 nM ZmaJ, 3.5 mM ATP, and varying concentrations of L-Ser (0.35 to 10 mM), in triplicate, were incubated for 10 min prior to stopping the reactions."}, "[2]": {"tested_on": "N[C@@H](CO)C(=O)O", "test": "purified protein, by the assay type", "conditions": "other: 70 nM ZmaJ, 3.5 mM ATP, L-Ser 0.35 to 10 mM, 10 min, triplicate", "quoted_text": "ZmaJ used in these assays was purified by an additional anion exchange chromatography step, which had no effect on seryl-ZmaH formation. […] Reactions for amino acid specificity contained 70 nM ZmaJ and 1 mM of the following amino acids: L-Ser, L-2,3-diaminopropionate, L-Thr, Gly, and L-Cys. To determine the kinetic parameters of ZmaJ activation of L-Ser, 100 μL reactions containing 70 nM ZmaJ, 3.5 mM ATP, and varying concentrations of L-Ser (0.35 to 10 mM), in triplicate, were incubated for 10 min prior to stopping the reactions. The reactions were in the linear range for enzyme concentration and less than 10% substrate-to-product conversion."}, "[3]": {"target": "T1, ZmaJ", "conditions": "10 μM holo-ZmaD replaced holo-ZmaH; L-serine, ATP", "quoted_text": "Reaction mixtures (130 or 260 μl) contained: 10 μM holo-ZmaH, 58 mM Tris pH 7.5, 8 mM MgCl2, 0.8 mM TCEP, 385 μM CoA, 0.8 μM Sfp, 250 μM L-serine, 5 mM ATP, and 1 μM ZmaJ. The reaction mixtures were incubated at 22° C. for 1 hour. To test whether seryl-ZmaD could be formed, 10 μM holo-ZmaD replaced the 10 μM holo-ZmaH in a 130 μL reaction mixture.\nIn this experiment, 100-200 μl of apo- or holo-ZmaH or 130-200 μl of aminoacylated ZmaH reaction products was injected, and products were separated using the same method as above."}, "[4]": {"tested_on": "ZmaN", "sequence (as listed by the source, one chain of several)": "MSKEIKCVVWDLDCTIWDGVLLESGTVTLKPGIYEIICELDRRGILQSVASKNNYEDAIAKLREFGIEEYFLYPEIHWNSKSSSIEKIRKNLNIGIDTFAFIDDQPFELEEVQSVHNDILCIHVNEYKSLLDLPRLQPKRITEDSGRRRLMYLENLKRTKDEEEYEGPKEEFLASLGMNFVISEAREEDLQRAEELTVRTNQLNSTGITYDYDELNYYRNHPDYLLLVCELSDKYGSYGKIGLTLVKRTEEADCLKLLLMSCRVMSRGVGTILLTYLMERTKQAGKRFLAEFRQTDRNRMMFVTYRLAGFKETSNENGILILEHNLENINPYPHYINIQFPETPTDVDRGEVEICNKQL", "test": "Formation of glyceryl-ZmaD (ZmaN-catalyzed modification of holo-ACP, HPLC analysis)", "assay_type": "biochemical, Bacillus cereus", "conditions": "50 μM 3-PG, ATP", "procedure": "Control reactions were run without ZmaN, ATP, or with 2 U of 3-PGPK (Sigma). A time course comparing reactions with and without 3-PGPK contained 50 μM 3-PG, and the reactions were run for 0.5, 2.0, 5.0, and 10 min.\nReactions containing glyceraldehyde-3-phosphate (150 μl final volume) contained: 12.5 μM holo-ZmaD, 75 mM Tris pH 7.5, 10 mM MgCl2, 1 mM TCEP, 100 mM NaCl, 500 μM CoA, 1 μM Sfp, 250 μM DL-glyceraldehyde-3-phosphate (Sigma), 1 U GAPDH (Sigma), and 1 μM ZmaN were run for 40 min at 22° C. Control reactions without GAPDH, DL-glyceraldehyde-3-phosphate, Sfp, or ZmaN were run, as well as control reactions in which holo-ZmaH replaced holo-ZmaD."}}, "note": "Like-named read-outs stand apart in the source and are kept apart here.", "data": [{"molecule": "NCC(=O)O", "note": "[Gly]", "values": [{"measurement": "amino acid substrate specificity of ZmaJ (activation)", "setting": "[1]", "result": "activated only L-Ser"}]}, {"molecule": "N[C@@H](CS)C(=O)O", "note": "[L-Cys]", "values": [{"measurement": "amino acid substrate specificity of ZmaJ (activation)", "setting": "[1]; 70 nM ZmaJ, 1 mM amino acid", "result": "activated only L-Ser"}]}, {"molecule": "N[C@@H](CO)C(=O)O", "note": "[L-Ser, L-serine]", "values": [{"measurement": "amino acid substrate specificity of ZmaJ (activation)", "setting": "[1]; 70 nM ZmaJ, 1 mM amino acid", "result": "activated only L-Ser"}]}, {"molecule": "C[C@@H](O)[C@H](N)C(=O)O", "note": "[L-Thr]", "values": [{"measurement": "amino acid substrate specificity of ZmaJ (activation)", "setting": "[1]; 70 nM ZmaJ, 1 mM amino acid", "result": "activated only L-Ser"}]}, {"molecule": "L-2,3-diaminopropionate", "values": [{"measurement": "amino acid substrate specificity of ZmaJ (activation)", "setting": "[1]; 70 nM ZmaJ, 1 mM amino acid", "result": "activated only L-Ser"}]}, {"molecule": "ZmaJ (Bacillus cereus)", "values": [{"measurement": "Km", "setting": "[2]", "result": "1.8 ± 0.2", "unit": "mM"}, {"measurement": "kcat", "setting": "[2]", "result": "42 ± 2", "unit": "min⁻¹"}]}, {"molecule": "B1", "values": [{"measurement": "aminoacylation by ZmaJ (seryl-ACP formation)", "setting": "[3]", "result": "not able to aminoacylate"}, {"measurement": "rate of holo-ZmaD modification", "setting": "[4]; with 3-PGPK", "result": 1.44, "unit": "nmol/min"}, {"measurement": "rate of holo-ZmaD modification", "setting": "[4]; without 3-PGPK", "result": 0.08, "unit": "nmol/min"}]}]}
